# Test results taken from patent publication US9814704B2, “Substituted pyrrolo[2,3-b]pyridines as MLK inhibitors” (The University of Rochester, priority 2008, dated 2017).
# Biological target: MLK3 (Homo sapiens (Human), UniProt Q16584)
# Assay: Radiometric Filter Plate MLK3 Assay
# Type: biochemical
# Settings: 200 ng (130 nM) MLK3, 1 μM inactive MKK7b, 2 μM cold ATP (Km), 33P ATP, twenty minute incubation; read-out: MK3 IC50
# Experimental: Radiometric Filter Plate MLK3 Assay
# After a twenty minute incubation, the reactions were washed through filter plates and read on a scintillation counter. Results are shown in Table 4 below, in which +++ indicates ≦0.1 μM, ++ indicates >0.1 μM and ≦1 μM, and + indicates >1 μM.
# Chain of MLK3 (Q16584 whole entry): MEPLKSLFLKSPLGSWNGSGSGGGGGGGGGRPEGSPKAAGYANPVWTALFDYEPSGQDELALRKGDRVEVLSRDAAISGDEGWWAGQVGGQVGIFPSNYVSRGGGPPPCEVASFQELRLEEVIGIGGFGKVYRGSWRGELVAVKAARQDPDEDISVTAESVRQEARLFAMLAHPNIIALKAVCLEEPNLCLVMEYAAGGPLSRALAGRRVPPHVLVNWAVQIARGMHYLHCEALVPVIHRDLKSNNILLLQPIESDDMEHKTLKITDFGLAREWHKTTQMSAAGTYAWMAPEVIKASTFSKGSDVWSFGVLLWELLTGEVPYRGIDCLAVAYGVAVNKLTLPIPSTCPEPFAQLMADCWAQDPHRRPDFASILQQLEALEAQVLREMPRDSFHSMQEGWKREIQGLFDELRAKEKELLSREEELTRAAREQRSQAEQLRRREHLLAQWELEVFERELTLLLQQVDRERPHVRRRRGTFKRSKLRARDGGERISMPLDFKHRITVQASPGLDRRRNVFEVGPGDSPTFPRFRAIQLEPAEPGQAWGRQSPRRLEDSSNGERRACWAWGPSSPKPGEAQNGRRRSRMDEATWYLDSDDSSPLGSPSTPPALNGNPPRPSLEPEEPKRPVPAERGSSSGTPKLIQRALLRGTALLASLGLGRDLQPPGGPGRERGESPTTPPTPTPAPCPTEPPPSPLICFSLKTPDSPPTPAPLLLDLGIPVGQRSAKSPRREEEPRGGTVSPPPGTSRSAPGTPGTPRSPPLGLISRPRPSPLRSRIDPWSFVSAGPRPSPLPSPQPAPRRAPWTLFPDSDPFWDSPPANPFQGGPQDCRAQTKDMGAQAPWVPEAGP
row,SMILES,IC50
1,"O=c1[nH]c2ncc(-c3cc(F)c(O)c(F)c3)nc2n1-c1ccc2[nH]ccc2c1 [Example 59, 6-(3,5-difluoro-4-hydroxyphenyl)-1-(1H-indol-5-yl)-1H-imidazo[4,5-b]pyrazin-2(3H)-one]",< 100 nM
2,"O=c1[nH]c2ncc(-c3ccc(N4CCOCC4)cc3)nc2n1CC1CC1 [Example 86, 1-(cyclopropylmethyl)-6-(4-morpholinophenyl)-1H-imidazo[4,5-b]pyrazin-2(3H)-one]",> 1000 nM
3,"Nc1ccc(-c2cnc3[nH]c(=O)n(C4CCCC4)c3n2)cn1 [Example 117, 6-(6-aminopyridin-3-yl)-1-cyclopentyl-1H-imidazo[4,5-b]pyrazin-2(3H)-one]",> 1000 nM
4,"COc1cc(-c2cnc3c(c2)C(Cc2cccnc2)C(=O)N3)cc(OC)c1OC (stereo not drawn) [Example 135, 3-pyridin-3-ylmethyl-5-(3,4,5-trimethoxy-phenyl)-1,3-dihydro-pyrrolo[2,3-b]pyridin-2-one]",> 1000 nM
5,"COc1cc(-c2nc3c(nc2Cl)[nH]c(=O)n3CC2CC2)cc(OC)c1OC [Example 119, 5-chloro-1-(cyclopropylmethyl)-6-(3,4,5-trimethoxyphenyl)-1H-imidazo[4,5-b]pyrazin-2(3H)-one]",> 1000 nM
6,"CN1CCN(C(=O)c2cccc(-c3cnc4[nH]cc(-c5ccc6[nH]ccc6c5)c4c3)c2)CC1 [Example 147, {3-[3-(1H-indol-5-yl)-1H-pyrrolo[2,3-b]pyridin-5-yl]-phenyl}-(4-methyl-piperazin-1-yl)-methanone]",< 100 nM
7,"Cc1cc(C)cc(-c2cnc3[nH]c(=O)n(-c4ccc5scnc5c4)c3n2)c1 [Example 99, 1-(benzo[d]thiazol-5-yl)-6-(3,5-dimethylphenyl)-1H-imidazo[4,5-b]pyrazin-2(3H)-one]",> 1000 nM
8,"CN1CCN(Cc2ccc(-c3cnc4[nH]cc(-c5ccc6[nH]ccc6c5)c4c3)cc2)CC1=O [Example 141, 4-{4-[3-(1H-indol-5-yl)-1H-pyrrolo[2,3-b]pyridin-5-yl]-benzyl}-1-methyl-piperazin-2-one]",< 100 nM
9,"CN1CCN(Cc2ccc(-c3c[nH]c4ncc(-c5ccc6[nH]ccc6c5)cc34)cc2)CC1 [Example 163, 5-(1H-indol-5-yl)-3-[4-(4-methyl-piperazin-1-ylmethyl)-phenyl]-1H-pyrrolo[2,3-b]pyridine]",> 1000 nM
10,"COc1cc(-c2cnc3[nH]cc(-c4ccc(N)cc4)c3c2)cc(OC)c1OC [Example 15, 4-(5-(3,4,5-trimethoxyphenyl)-1H-pyrrolo[2,3-b]pyridin-3-yl)aniline]",< 100 nM
11,"COc1cc(-c2cnc3[nH]c(=O)n(-c4ccc5[nH]cnc5c4)c3n2)cc(OC)c1OC [Example 102, 1-(1H-benzo[d]imidazol-5-yl)-6-(3,4,5-trimethoxyphenyl)-1H-imidazo[4,5-b]pyrazin-2(3H)-one]",< 100 nM
12,"Cc1cc2cc(-n3c(=O)[nH]c4ncc(-c5cc(Cl)cc(Cl)c5)nc43)ccc2[nH]1 [Example 73, 6-(3,5-dichlorophenyl)-1-(2-methyl-1H-indol-5-yl)-1H-imidazo[4,5-b]pyrazin-2(3H)-one]",> 1000 nM
13,"COc1ccc(-c2cnc3[nH]cc(-c4ccc5[nH]ccc5c4)c3n2)cc1OC [Example 37, 2-(3,4-dimethoxyphenyl)-7-(1H-indol-5-yl)-5H-pyrrolo[3,2-b]pyrazine]",< 100 nM
14,"CN1CCN(c2cc(-c3cnc4[nH]cc(-c5ccc6[nH]ccc6c5)c4c3)ccn2)CC1 [Example 7, 3-(1H-indol-5-yl)-5-(2-(4-methylpiperazin-1-yl)pyridin-4-yl)-1H-pyrrolo[2,3-b]pyridine]",< 100 nM
15,"CNC(=O)c1ccc(-c2c[nH]c3ncc(-c4ccc(CN5CCN(C)CC5)cc4)cc23)cc1 [Example 165, N-methyl-4-{5-[4-(4-methyl-piperazin-1-ylmethyl)-phenyl]-1H-pyrrolo[2,3-b]pyridin-3-yl}-benzamide]",< 100 nM
16,"COc1cc(-c2cnc3c(c2)C(CC2CC2)C(=O)N3)cc(OC)c1OC (stereo not drawn) [Example 123, 3-(cyclopropylmethyl)-5-(3,4,5-trimethoxyphenyl)-1H-pyrrolo[2,3-b]pyridin-2(3H)-one]",100 to 1000 nM
17,"CC(C)(C)OC(=O)N1CCN(Cc2ccc(-c3cnc4[nH]cc(-c5ccc6[nH]ccc6c5)c4c3)cc2)CC1 [Example 144, 4-{4-[3-(1H-indol-5-yl)-1H-pyrrolo[2,3-b]pyridin-5-yl]-benzyl}-piperazine-1-carboxylic acid tert-butyl ester]",< 100 nM
18,"COc1cc(OC)cc(-c2cnc3[nH]c(=O)n(-c4ccc5[nH]ccc5c4)c3n2)c1 [Example 65, 6-(3,5-dimethoxyphenyl)-1-(1H-indol-5-yl)-1H-imidazo[4,5-b]pyrazin-2(3H)-one]",> 1000 nM
19,"COc1cc(-c2cnc3c(c2)C(=Cc2ccc(C#N)cc2)C(=O)N3)cc(OC)c1OC [Example 133, 4-[2-oxo-5-(3,4,5-trimethoxy-phenyl)-1,2-dihydro-pyrrolo[2,3-b]pyridin-3-ylidenemethyl]-benzonitrile]",> 1000 nM
20,"Cc1cc(C)cc(-c2cnc3[nH]c(=O)n(-c4ccc5cn[nH]c5c4)c3n2)c1 [Example 95, 6-(3,5-dimethylphenyl)-1-(1H-indazol-6-yl)-1H-imidazo[4,5-b]pyrazin-2(3H)-one]",> 1000 nM
21,"O=c1[nH]c2ncc(-c3ccc(N4CCOCC4)cc3)nc2n1-c1ccc2[nH]ncc2c1 [Example 89, 1-(1H-indazol-5-yl)-6-(4-morpholinophenyl)-1H-imidazo[4,5-b]pyrazin-2(3H)-one]",> 1000 nM
22,"COc1cc(-c2cnc3[nH]c(=O)n(C4Cc5ccccc5C4)c3n2)cc(OC)c1OC [Example 110, 1-(2,3-dihydro-1H-inden-2-yl)-6-(3,4,5-trimethoxyphenyl)-1H-imidazo[4,5-b]pyrazin-2(3H)-one]",< 100 nM
23,"COc1cc(-c2cnc3[nH]cc(-c4ccc5[nH]ccc5c4)c3n2)ccc1N [Example 38, 4-(7-(1H-indol-5-yl)-5H-pyrrolo[3,2-b]pyrazin-2-yl)-2-methoxyaniline]",< 100 nM
24,"COc1cc(-c2cnc3[nH]c(=O)n(-c4ccc5[nH]ccc5c4)c3n2)ccc1OCCN1CCOCC1 [Example 57, 1-(1H-indol-5-yl)-6-(3-methoxy-4-(2-morpholinoethoxy)phenyl)-1H-imidazo[4,5-b]pyrazin-2(3H)-one]",< 100 nM
25,"COc1cc(-c2cnc3c(c2)C(Cc2ccc(C(N)=O)cc2)C(=O)N3)cc(OC)c1OC (stereo not drawn) [Example 138, 4-[2-oxo-5-(3,4,5-trimethoxy-phenyl)-2,3-dihydro-1H-pyrrolo[2,3-b]pyridin-3-ylmethyl]-benzamide]",> 1000 nM

# Same assay, conditions: read-out: MK3 IC50
row,SMILES,IC50
1,"COc1cc(-c2cnc3[nH]c(=O)n(-c4ccc5[nH]ccc5c4)c3n2)ccc1OCCN1CCNCC1 [Example 67, 1-(1H-indol-5-yl)-6-(3-methoxy-4-(2-(piperazin-1-yl)ethoxy)phenyl)-1H-imidazo[4,5-b]pyrazin-2(3H)-one]",100 to 1000 nM
2,"CC(=O)N1CCN(C(=O)c2cccc(-c3cnc4[nH]cc(-c5ccc(C(N)=O)cc5)c4c3)c2)CC1 [Example 153, 4-{5-[3-(4-acetyl-piperazine-1-carbonyl)-phenyl]-1H-pyrrolo[2,3-b]pyridin-3-yl}-benzamide]",100 to 1000 nM
3,"COc1ccc(-c2cnc3[nH]cc(-c4ccc5[nH]ccc5c4)c3c2)cc1OC [Example 2, 5-(3,4-dimethoxyphenyl)-3-(1H-indol-5-yl)-1H-pyrrolo[2,3-b]pyridine]",100 to 1000 nM
4,"COc1ccc(-n2c(=O)[nH]c3ncc(-c4cc(OC)c(OC)c(OC)c4)nc32)cc1 [Example 68, 1-(4-methoxyphenyl)-6-(3,4,5-trimethoxyphenyl)-1H-imidazo[4,5-b]pyrazin-2(3H)-one]",100 to 1000 nM
5,"COc1cc(-c2cnc3[nH]c(=O)n(C4CCCC4)c3n2)ccc1OCCN1CCOCC1 [Example 108, 1-cyclopentyl-6-(3-methoxy-4-(2-morpholinoethoxy)phenyl)-1H-imidazo[4,5-b]pyrazin-2(3H)-one]",100 to 1000 nM
6,"Cc1cc2cc(-n3c(=O)[nH]c4ncc(-c5ccc(O)cc5)nc43)ccc2[nH]1 [Example 84, 6-(4-hydroxyphenyl)-1-(2-methyl-1H-indol-5-yl)-1H-imidazo[4,5-b]pyrazin-2(3H)-one]",100 to 1000 nM
7,"COc1cc(-c2cnc3c(c2)C(Cc2ccccc2)(Cc2ccccc2)C(=O)N3)cc(OC)c1OC [Example 139, 3,3-dibenzyl-5-(3,4,5-trimethoxy-phenyl)-1,3-dihydro-pyrrolo[2,3-b]pyridin-2-one]",100 to 1000 nM
8,"O=c1[nH]c2ncc(-c3ccc(N4CCOCC4)cc3)nc2n1-c1ccc2[nH]ccc2c1 [Example 52, 1-(1H-indol-5-yl)-6-(4-morpholinophenyl)-1H-imidazo[4,5-b]pyrazin-2(3H)-one]",100 to 1000 nM
9,"c1cc2cc(-c3c[nH]c4ncc(-c5ccc(N6CCNCC6)nc5)cc34)ccc2[nH]1 [Example 10, 3-(1H-indol-5-yl)-5-(6-(piperazin-1-yl)pyridin-3-yl)-1H-pyrrolo[2,3-b]pyridine]",100 to 1000 nM
10,"COc1cc(-c2cnc3[nH]c(=O)n(-c4ccc5c(ccn5C)c4)c3n2)cc(OC)c1OC [Example 41, 1-(1-methyl-1H-indol-5-yl)-6-(3,4,5-trimethoxyphenyl)-1H-imidazo[4,5-b]pyrazin-2(3H)-one]",100 to 1000 nM
11,"COc1ccc(-c2cnc3[nH]c(=O)n(-c4ccc5[nH]ccc5c4)c3n2)cc1OC [Example 47, 6-(3,4-dimethoxyphenyl)-1-(1H-indol-5-yl)-1H-imidazo[4,5-b]pyrazin-2(3H)-one]",100 to 1000 nM
12,"c1ccc(-c2cnc3[nH]cc(-c4ccc5[nH]ccc5c4)c3c2)cc1 [Example 14, 3-(1H-indol-5-yl)-5-phenyl-1H-pyrrolo[2,3-b]pyridine]",100 to 1000 nM
13,"COc1ccc(-c2cnc3[nH]c(=O)n(-c4ccc5[nH]ccc5c4)c3n2)cc1N [Example 50, 6-(3-amino-4-methoxyphenyl)-1-(1H-indol-5-yl)-1H-imidazo[4,5-b]pyrazin-2(3H)-one]",100 to 1000 nM
14,"c1cc2cc(-c3cnc4[nH]cc(-c5ccc6[nH]ccc6c5)c4c3)ccc2[nH]1 [Example 12, 3,5-di(1H-indol-5-yl)-1H-pyrrolo[2,3-b]pyridine]",100 to 1000 nM
